{"source": "patent US10968232B2", "about": "(Merck Sharp & Dohme Corp., priority 2016, dated 2021)"}
{"target": "T1, human GPR40 (Homo sapiens, UniProt O14842)", "T1 construct": "expressed in transfected cells", "T1 sequence (O14842 whole entry)": "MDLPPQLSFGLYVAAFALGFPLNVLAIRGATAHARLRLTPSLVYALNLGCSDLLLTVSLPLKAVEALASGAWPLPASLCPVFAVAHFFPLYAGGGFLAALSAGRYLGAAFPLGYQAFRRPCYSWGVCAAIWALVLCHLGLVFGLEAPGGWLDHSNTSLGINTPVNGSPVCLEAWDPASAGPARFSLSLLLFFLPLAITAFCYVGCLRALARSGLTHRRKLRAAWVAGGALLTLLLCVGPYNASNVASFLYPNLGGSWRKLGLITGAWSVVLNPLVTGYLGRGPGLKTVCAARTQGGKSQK", "assay": "Inositol Phosphate Turnover (IP1) Assay", "type": "cell-based", "settings": "HEK cells stably expressing human GPR40; CisBio IP-One kit; 60 minutes at 37 degrees; read-out: Human IP1 EC50", "summary_of_the_method": "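HEK cells stably expressing GPR40, plated 16 h, then exposed to compound in stimulation buffer for 60 min at 37 °C. IP1 accumulation read by HTRF IP-One detection after 60 min at RT.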", "units": {"EC50": "nM"}}
{"smiles": "CC(c1cc(C(F)(F)F)ccc1C1CC1)N1CCC2(CCc3ccc([C@H](C4CC4)[C@H](C)C(=O)O)c(F)c3O2)CC1", "note": "(single isomer, unassigned) [Example 11, sodium (2S,3R)-3-cyclopropyl-3-(1′-((R or S)-1-(2-cyclopropyl-5-(trifluoromethyl)-phenyl)ethyl)-8-fluorospiro[chroman-2,4′-piperidin]-7-yl)-2-methylpropanoate]", "EC50": 0.434}
{"smiles": "C[C@H](C(=O)O)[C@H](c1ccc2c(c1)OC1(CC2)CCN(c2cncc(C(F)(F)F)c2)CC1)C1CC1", "note": "[Example 39, (2S,3R)-3-cyclopropyl-2-methyl-3-(1′-(5-(trifluoromethyl)pyridin-3-yl)Spiro [chroman-2,4′-piperidin]-7-yl)propanoic Acid]", "EC50": 566}
{"smiles": "C[C@H](C(=O)O)[C@H](c1ccc2c(c1)OC1(CC2)CCC(N(C)c2ncccc2C(F)(F)F)CC1)C1CC1", "note": "(single isomer, unassigned) [Example 63]", "EC50": 2.98}
{"smiles": "C[C@H](C(=O)O)[C@H](c1ccc2c(c1)OC1(CC2)CCN(S(=O)(=O)c2ccc(Cl)cc2Cl)CC1)C1CC1", "note": "[Example 45]", "EC50": 148}
{"smiles": "C[C@H](C(=O)O)[C@H](c1ccc2c(c1)OC1(CC2)CCN([C@@H](C)c2cc(C(F)(F)F)ccc2C(F)(F)F)CC1)C1CC1", "note": "[Example 131, Sodium (2S,3R)-3-(1′-((S)-1-(2,5-bis(trifluoromethyl)phenyl)ethyl)spiro[chromane-2,4′-piperidin]-7-yl)-3-cyclopropyl-2-methylpropanoate]", "EC50": "> 1000"}
{"smiles": "CC(c1cc(C(F)(F)F)ccc1C1CC1)N1CCC2(CCc3ccc([C@H](C4CC4)[C@H](C)C(=O)O)c(F)c3O2)CC1", "note": "(single isomer, unassigned) [Example 14, sodium (2S,3R)-3-cyclo-propyl-3-(1′-((S or R)-1-(2-cyclopropyl-5-(trifluoromethyl)phenyl)-ethyl)-8-fluorospiro [chroman-2,4′-piperidin]-7-yl)-2-methylpropanoate]", "EC50": 36.3}
{"smiles": "CC(c1cc(Cl)ccc1F)N1CCC2(CCc3ccc([C@H](C4CC4)[C@H](C)C(=O)O)cc3O2)CC1", "note": "(single isomer, unassigned) [Example 78, (2S,3R)-3-(1′-((R or S)-1-(5-chloro-2-fluorophenyl)ethyl)spiro[chroman-2,4′-piperidin]-7-yl)-3-cyclopropyl-2-methylpropanoic Acid]", "EC50": 14.3}
{"smiles": "C[C@H](C(=O)O)[C@H](c1ccc2c(c1)OC1(CC2)CC(Nc2ncccc2C(F)(F)F)C1)C1CC1", "note": "(single isomer, unassigned) [Example 88]", "EC50": 57}
{"smiles": "C[C@H](C(=O)O)[C@H](c1ccc2c(c1)OC1(CCCN(Cc3cc(C(F)(F)F)ccc3C(F)(F)F)CC1)CC2)C1CC1", "note": "(single isomer, unassigned) [Example 47, (2S,3R)-3-((R or S)-1-(2,5-bis(trifluoromethyl)benzyl)spiro[azepane-4,2′-chroman]-7′-yl)-3-cyclopropyl-2-methylpropanoic Acid]", "EC50": 2.64}
{"smiles": "C[C@H](C(=O)O)[C@H](c1ccc2c(c1)OC1(CC2)CCC(Nc2ncccc2C(F)(F)F)CC1)C1CC1", "note": "(single isomer, unassigned) [Example 65]", "EC50": 28}
{"smiles": "C[C@H](C(=O)O)[C@H](c1ccc2c(c1)OC1(CC2)CCN(S(=O)(=O)c2cc(C(F)(F)F)ccc2C(F)(F)F)CC1)C1CC1", "note": "[Example 23, (2S,3R)-3-(1′-((2,5-bis(trifluoromethyl)phenyl)sulfonyl)spiro[chroman-2,4′-piperidin]-7-yl)-3-cyclopropyl-2-methylpropanoic Acid]", "EC50": 14.3}
{"smiles": "C[C@H](C(=O)O)[C@H](c1ccc2c(c1)OC1(CC2)CCN(Cc2cc(Cl)cc3c2OC(C)(C)C3)CC1)C1CC1", "note": "[Example 61, sodium (2S3R)-3-(1′-((5-chloro-2,2-dimethyl-2,3-dihydrobenzofuran-7-yl)methyl)-spiro[chroman-2,4′-piperidin]-7-yl)-3-cyclopropyl-2-methylpropanoate]", "EC50": 118}
{"smiles": "C[C@H](C(=O)O)[C@H](c1ccc2c(c1F)OC1(CC2)CCN(Cc2cc(F)ccc2OC(F)(F)F)CC1)C1CC1", "note": "[Example 3, (2S,3R)-3-cyclopropyl-3-(8-fluoro-1′-(5-fluoro-2-(trifluoromethoxy)-benzyl)spiro[chroman-2,4′-piperidin]-7-yl)-2-methylpropanoic acid]", "EC50": 11.7}
{"smiles": "CC(c1cc(C2CC2)ccc1C(F)(F)F)N1CCC2(CCc3ccc([C@H](C4CC4)[C@H](C)C(=O)O)cc3O2)CC1", "note": "(single isomer, unassigned) [Example 57, (2S,3R)-3-cyclopropyl-3-(1′-((R or S)-1-(5-cyclopropyl-2-(trifluoromethyl)phenyl)-ethyl)-spiro[chroman-2,4′-piperidin]-7-yl)-2-methylpropanoic Acid]", "EC50": 1.4}
{"smiles": "C[C@H](C(=O)O)[C@H](c1ccc2c(c1)OC1(CC2)CC(N(C)c2ncccc2C(F)(F)F)C1)C1CC1", "note": "(stereo partly drawn) [Example 89, (2S,3R)-3-cyclopropyl-2-methyl-3-(3′-(methyl(3-(trifluoromethyl)pyridin-2-yl)amino)spiro[chroman-2,1′-cyclobutan]-7-yl)propanoic Acid]", "EC50": 13.1}
{"smiles": "C[C@H](C(=O)O)[C@H](c1ccc2c(c1F)OC1(CC2)CCN(Cc2cc(Cl)ccc2OC(F)(F)F)CC1)C1CC1", "note": "[Example 4, (2S,3R)-3-(1′-(5-chloro-2-(trifluoromethoxy)benzyl)-8-fluorospiro[chroman-2,4′-piperidin]-7-yl)-3-cyclopropyl-2-methylpropanoic Acid]", "EC50": 8.06}
{"smiles": "C[C@H](C(=O)O)[C@H](c1ccc2c(c1)OC1(CC2)[C@@H]2CC[C@H]1CN([C@@H](C)c1cc(F)ccc1C(F)(F)F)C2)C1CC1", "note": "(single isomer, unassigned) [Example 82]", "EC50": 249}
{"smiles": "C[C@H](C(=O)O)[C@H](c1ccc2c(c1)OC1(CC2)CCC(Nc2ncccc2C(F)(F)F)CC1)C1CC1", "note": "(single isomer, unassigned) [Example 68]", "EC50": 0.41}
{"smiles": "Cc1nocc1-c1ccc(OC(F)(F)F)c(C(C)N2CCC3(CCc4ccc([C@H](C5CC5)[C@H](C)C(=O)O)cc4O3)CC2)c1", "note": "(single isomer, unassigned) [Example 116, (2S,3R)-3-cyclopropyl-2-methyl-3-(1′-((R or S)-1-(5-(3-methylisoxazol-4-yl)-2-(trifluoromethoxy)phenyl)eth-yl)spiro[chroman-2,4′-piperidin]-7-yl)propanoic acid]", "EC50": 323}
{"smiles": "C[C@H](C(=O)O)[C@H](c1ccc2c(c1)OC1(CC2)[C@@H]2CC[C@H]1CN([C@@H](C)c1cc(F)ccc1C(F)(F)F)C2)C1CC1", "note": "(single isomer, unassigned) [Example 85]", "EC50": 36.2}
{"smiles": "COc1cc(N2CCC3(CCc4ccc([C@H](C5CC5)[C@H](C)C(=O)O)cc4O3)CC2)c(Cl)cn1", "note": "[Example 55, (2S,3R)-3-(1′-(5-chloro-2-methoxypyridin-4-yl)spiro[chroman-2,4′-piperidin]-7-yl)-3-cyclopropyl-2-methylpropanoic Acid]", "EC50": 7.59}
